Each structure is given as a SMILES string. Counter-ions that a name gives are not always drawn. Like-named read-outs stand apart in the source and are kept apart here.

The subject of series [1] is HIV-1 (HTLVIIIB). In words: microbe, parasite or virus in culture. The class given is cell-based. The conditions noted are these: H9 cells; for IC50: Human immunodeficiency virus 1.
Procedure: (§3) The effects for test compounds were assessed by means of both IFA and p24 release. In general, the following protocol was followed: H9 cells were infected with HIV-1 at 1000 50% infective doses of viruses/10^6 cells. Virus was allowed to adsorb for 1 h, after which unadsorbed virus was removed by centrifugation. The cells were resuspended and washed twice with PBS (without Ca^+2 or Mg^+2 salts) and centrifuged to collect the cell pellet (150×g×10 min). Cells were suspended in fresh medium and added at a final cell density of 500,000 cells/ml in a 96-well plate with media containing 0.1% DMSO and various concentrations of test compounds. The cells were re-fed freshly prepared media containing 0.1% DMSO±test compounds on day four (for preinduction experiments, cells were exposed to inducers on days -2, 0, and +4 days relative to infection). After seven days, cells were examined for cytoxicity by trypan blue exclusion, the degree of infection with HIV-1 by IFA, and the supernatants were assayed for p24 levels according to the manufacturer's directions. The IFA procedure can be summarized as follows: The cells were washed twice in PBS and were placed in 5 mm 12-well slides. After allowing the slides to dry and fixing the cells with acetone for 5 min, 10 μl of HIV-1 positive serum in 40 μl PBS was added to each well and allowed to incubate at 37° C. for 30 min. After incubation, the slides were washed twice with PBS and incubated at 37° C. for 30 min with 2.5 μl goat anti-human IgG-fluorescein isothiocyanate conjugate in 50 μl PBS containing 0.01% Evans Blue per well. The slides were then washed twice with PBS, dried, and mounted with 50% glycerol in PBS, and scored for the percentage of fluorescent cells by fluorescent microscopy.
Series [2] has as its system glutathione levels (GSH) in H9 cells. In words: Elevation of glutathione (GSH) levels in H9 cells. The class given is cell-based, human. The conditions noted are these: dose- and time-dependent, H9 cells. Here is the method: (§1) Five ml of medium was added to T-25 flasks and DMSO containing tests compounds were added to a final concentration of 0.1%. Control medium contained 0.1% DMSO. After the drugs were added, 5×10^6 cells in 5 ml of medium was added to each T-25 flask. The cells were grown at 37° C. in a humidified incubator supplemented with 5% CO2 until harvested (N=3 flasks/group). At the indicated times, cells were isolated by centrifugation (500×g×10 min) and were washed three times by adding 10 ml of ice-cold DPBS, mixing, and centrifuging in a refrigerated centrifuge (500×g×10 min) to isolate the cell pellets. The cells were then lysed by the addition of 400 μl of ice-cold DPBS containing 0.5% Triton X-100 and vortexing. Supernatants were then isolated by centrifuging the lysates (5000×g×20 min). Samples were kept on ice or refrigerated until the reagents for QR or GSH spectrophotometric assays were added to the aliquoted microtiter plates. QR levels were determined by aliquoting 10 μl/well of supernatant in a 96-well plate and measuring the activity by the assay described by Prochaska and Santamaria (20) except that the final NADP^+ concentration was 200 μM (21). Samples were assayed in quadruplicate, and dicoumarol inhibitable-rates (which generally represented less than 5% of the total rate) were also measured. Spectrophotometric blanks contained 10 μl of DPBS with 0.5% Triton X-100. For the GSH assay, 300 μl of sample was placed in a centricon-10microconcentrator and centrifuged (5000×g×45 min) until enough ultrafiltrate could be collected. 50 μl/well of sample in quadruplicate was placed in a 96 well "half-area" plate after which 20 μl of 1 mM Ellman's reagent dissolved in DPBS was added. The yellow color (22) developed within 5 min and was scanned with a uvmax microtiter scanner (Palo Alto, Calif.) at 405 nm. Spectrophotometric blanks contained 50 μl DPBS with 0.5% Triton X-100 and 20 μl of 1 mM Ellman's reagent in DPBS. The optical densities of the specimens were calibrated to a GSH standard curve. Protein contents were determined in 3 ml cuvettes by the Bradford method (23). The protein content in the ultrafiltrates employed for GSH determinations were negligible (<0.01 mg/ml).

Series [3] has as its system quinone reductase (QR) in H9 cells. In words: Elevation of quinone reductase (QR) in H9 cells. The class given is cell-based, human. The conditions noted are these: dose- and time-dependent, H9 cells. As to the method:
as §1
We confirmed that the induction of QR in microtiter wells mirrored our results in T-25 flasks by using the method of Prochaska and Santamaria (20). Medium (100 μl) containing 0.1% final concentration DMSO was added to all wells except columns designated to contain the highest concentration of drug or spectrophotometric blanks in duplicate sets of U-bottomed microtiter plates. 200 μl of media containing drug (final DMSO concentration=0.1%) was added to the empty column of wells and then diluted in 2-fold serial dilutions across. After the serial dilutions were performed, 100 μl of media containing 1×10^6 cells/ml was added to each well, and the plates were placed in a 37° C. incubator for 48 h. One set of plates was assayed as described (21) for QR activity, the other was assayed for cell number by the method for Alley et al. (24).

Series [4] has as its system H9 cells. Kind of series: Cytotoxicity in H9 cells by trypan blue exclusion. The class given is cell-based, human.
Procedure: as §3
Series [5] addresses T1, HIV-1 reverse transcriptase (RT) (Human immunodeficiency virus type 1 group M subtype B, UniProt P04585).
T1 construct: Recombinant HIV-1 reverse transcriptase (RT) was obtained from Worthington (Freehold, N.J.); purchased Worthington (Freehold, N.J.)
In words: Inhibition of recombinant HIV-1 reverse transcriptase (TTP incorporation). The series is classed as biochemical. The note with it: identical assay conditions. Here is the method:
(§2) Reverse transcriptase assays were performed as described by Flexner, et al. (25) using recombinant HIV-1 RT as the source of enzyme. Dilutions and assay were carried out in 96-well "half-area" plates. The enzyme with various concentrations of test compounds were dissolved in DPBS containing 1% w/v BSA and diluted in 50 μl volumes; 10 μl aliquots in triplicate were transferred to another plate for the enzyme assay. The reactions were initiated by the addition of 25 μl/well of buffer containing 50 mM Tris.cndot.Cl (pH 8.0), 75 mM KCl, 1 mM dithiothreitol, 2 mM MgCl2, 5 μg/ml poly(A), 2.5 μg/ml oligo (dT), 10 μCi/ml ^32 p TTP with or without unlabeled TTP. […] TTP incorporation was measured by spotting 20 μl of the reaction cocktail onto DE81 paper, washing the paper with 4×5 min washes of 300 mM NaCl and 30 mM sodium citrate (pH 7.0), drying the paper, and counting the paper by liquid scintillation counting. The assays performed with oltipraz and 1,2-dithiole-3-thione contained 0.29% final concentration DMSO. This concentration of DMSO had no effect on RT activity.

For series [6], the target named is T1, HIV-1 reverse transcriptase (RT). In words: Time-dependent (irreversible) inhibition of HIV-1 reverse transcriptase after preincubation. The series is classed as biochemical. The note with it: kinetic behaviour. As to the method: FIG. 6. […] RT was preincubated for the times indicated with oltipraz dissolved in DPBS containing 1 mg/ml bovine serum albumin, 0.13% DMSO, and either 4 μM TTP or 5 μg/ml poly(A):2.5 μg/ml oligo(dT). After incubation, 10 μl aliquots in triplicate were added to 25 μl of a reaction cocktail containing 4 μM TTP, 5 μg/ml poly(A), and 2.5 μg/ml oligo(dT) and assayed for TTP incorporation into DNA over 30 min. as described by Flexner, et al. (25). The insets are Kitz-Wilson transformations (41).
as §2, with “DMSO.” for “DMSO. This concentration of DMSO had no effect on RT activity.”

Where [7] appears, read: Exp 1, IFA, read-out: IC50 HIV-1 replication (Exp 1).
[8] abbreviates: Exp 2, IFA, read-out: IC50 HIV-1 replication (Exp 2).

As a reminder, the IC50 is the concentration at which inhibition is half-maximal. For `Cc1c(-c2cnccn2)ssc1=O` [compound 12], the “IC50 HIV-1 replication (Exp 2)” value in series [1] (Exp 2, IFA) is “Inactive”. For the same molecule, in series [1] (setting [7]), the IC50 came to 10 µM.
For `Cc1c(-c2ccncc2)ssc1=S` [compound 7], the IC50 in series [1] (setting [7]) and in series [1] (setting [8]) was 60 µM throughout.
As for `CC(C)(C)c1cc(O)ccc1O` [tert-butylhydroquinone], the “elevation of GSH” value in series [2] is “able to elevate both GSH and QR levels”. For the same molecule, the “elevation of QR” value in series [3] was “able to elevate both GSH and QR levels”. For the same molecule, the “inhibition of HIV-1 replication” value in series [1] (up to 30 μM) is “inactive”. The “cytotoxicity at optimal inductive doses” value in series [4] was “non-cytotoxic”.
In the case of `CC(C)c1ccc(Nc2ssc(=O)c2Cl)cc1` [compound 19], the IC50 was more than 60 µM in series [1] (setting [7]) and 1 µM in series [1] (setting [8]).
For the molecule `CN(C)CCCON=c1cc(-c2ccncc2)ss1` [compound 23], the IC50 in series [1] (setting [7]) is 0.4 µM; in series [1] (setting [8]) it was more than 60 µM.
The like results for `OCc1c(-c2cnccn2)ssc1=S` [compound 13] were, in that order, 0.4 µM and 0.2 µM.
As for `CC(C)N(C(=O)Cc1c(-c2cncnc2)ssc1=S)C(C)C` [compound 21], the IC50 was 1 µM in series [1] (setting [7]) and more than 60 µM in series [1] (setting [8]).
As to `CCOC(=O)c1c(-c2ccccn2)ssc1=S` [compound 16], the IC50 was 1 µM in series [1] (setting [7]) and 4 µM in series [1] (setting [8]).
On to `O=c1cc(-c2cnccn2)ss1` [compound 3], for which the “IC50 HIV-1 replication (Exp 2)” value in series [1] (Exp 2, IFA) is reported as “Inactive”. The IC50 in series [1] (setting [7]) came out at 4 µM.
On the same counts, the results for `Cc1c(-c2cccnc2)ssc1=S` [compound 6] are “Inactive” and 10 µM.
Consider `CCc1c(-c2cnccn2)ssc1=S` [compound 14], for which the IC50 in series [1] (setting [7]) and in series [1] (setting [8]) was 15 µM throughout.
In the case of `Cc1c(-c2ccccn2)ssc1=S` [compound 5], the IC50 in series [1] (setting [7]) was found to be 3 µM; in series [1] (setting [8]), 10 µM.
As to `Cc1c(-c2cccnn2)ssc1=S` [compound 8], the results for the IC50 in series [1] (setting [7]) and in series [1] (setting [8]) were 2 µM and 4 µM, respectively.
For `S=c1cc(-c2ccccc2)ss1` [compound 1], the “IC50 HIV-1 replication (Exp 1)” value in series [1] (Exp 1, IFA) is “Inactive”. In series [1] (Exp 2, IFA), the “IC50 HIV-1 replication (Exp 2)” value is recorded as “Inactive”.
With `Cc1cn([C@H]2C[C@H](N=[N+]=[N-])[C@@H](COP(=O)(O)OP(=O)(O)OP(=O)(O)O)O2)c(=O)[nH]c1=O` [AZT triphosphate, 3'-azido-3'-deoxythymidine-5'-triphosphate], in series [5], the “potency relative to oltipraz (reverse transcriptase)” value was “approximately 1000 fold”.
Take `COc1ccc(-c2cc(=S)ss2)cc1` [compound 2]: in series [1] (Exp 1, IFA), the “IC50 HIV-1 replication (Exp 1)” value is “Inactive”. Further, the “IC50 HIV-1 replication (Exp 2)” value in series [1] (Exp 2, IFA) is “Inactive”.
For the molecule `CCOC(=O)c1c(-c2ccncc2)ssc1=S` [compound 17], the IC50 in series [1] (setting [7]) was 15 µM; in series [1] (setting [8]) it was more than 60 µM.
On the same counts, the results for `CCOC(=O)Cc1c(-c2cncnc2)ssc1=S` [compound 20] are more than 60 µM and more than 60 µM.
Consider `CCCCc1c(-c2cnccn2)ssc1=S` [compound 15], for which the IC50 in series [1] (setting [7]) and in series [1] (setting [8]) was 2 µM throughout.
In the case of `Cc1c(C=Cc2cnccn2)ssc1=S` [compound 10], the IC50 in series [1] (setting [7]) and in series [1] (setting [8]) was more than 60 µM in each case.
For the molecule `CCCCc1c(-c2ccc(N(C)C)nn2)ssc1=S` [compound 24], in series [1] (Exp 1, IFA), the “IC50 HIV-1 replication (Exp 1)” value is on record as “Inactive”. Besides, the “IC50 HIV-1 replication (Exp 2)” value in series [1] (Exp 2, IFA) is “Inactive”.
Consider `S=c1ssc(-c2cccnn2)c1CCc1ccccc1` [compound 22], for which the results for the IC50 in series [1] (setting [7]) and in series [1] (setting [8]) were 0.4 µM and more than 60 µM, respectively.
Consider `CC(C)c1ccc(Nc2ssc(=S)c2Cl)cc1` [compound 18], for which the results for the IC50 in series [1] (setting [7]) and in series [1] (setting [8]) were 0.4 µM and more than 60 µM, respectively.
Consider `COC(=O)/C=C/C(=O)OC` [dimethyl fumarate], for which the “elevation of GSH” value in series [2] is “able to elevate both GSH and QR levels”. Besides, the “elevation of QR” value in series [3] is “able to elevate both GSH and QR levels”. In addition, the “inhibition of HIV-1 replication” value in series [1] (up to 60 μM) is “inactive”. In series [4], the “cytotoxicity at optimal inductive doses” value is on record as “non-cytotoxic”.
`Cc1ncc(-c2cc(=S)ss2)nc1C` [compound 4]: the “IC50 HIV-1 replication (Exp 1)” value in series [1] (Exp 1, IFA) is on record as “Inactive”. For the same molecule, in series [1] (Exp 2, IFA), the “IC50 HIV-1 replication (Exp 2)” value is recorded as “Inactive”.
With `Cc1c(-c2cccs2)ssc1=S` [compound 9, 4-methyl-5-(2-thiofuranyl)-1,2-dithiole-3-thione], the IC50 in series [1] (setting [7]) was found to be 0.4 µM; in series [1] (setting [8]) it was 2 µM; in series [1] (N=5 independent experiments, IFA, read-out: IC50 HIV-1 replication), 1.8 ± 0.7 µM. For the same molecule, in series [6], the “irreversible inhibition of reverse transcriptase” value is given as “behaves kinetically as an irreversible inhibitor of reverse transcriptase”.

Values taken from US5691338A, “1,2-dithiole-3 thiones for the treatment of reverse transcriptase-dependent viral infections” (priority 1995, dated 1997).
